In ChEMBL document CHEMBL1152783, “Octahydrophenanthrene-2,7-diol analogues as dissociated glucocorticoid receptor agonists: discovery and lead exploration” (J Med Chem, 2009) one finds IC50 data, which are given here for 18 compounds.

Molecules are shown by their SMILES.

The target of experiment [1] is T1, Androgen receptor (Homo sapiens, UniProt P10275).
T1 sequence (P10275 whole entry): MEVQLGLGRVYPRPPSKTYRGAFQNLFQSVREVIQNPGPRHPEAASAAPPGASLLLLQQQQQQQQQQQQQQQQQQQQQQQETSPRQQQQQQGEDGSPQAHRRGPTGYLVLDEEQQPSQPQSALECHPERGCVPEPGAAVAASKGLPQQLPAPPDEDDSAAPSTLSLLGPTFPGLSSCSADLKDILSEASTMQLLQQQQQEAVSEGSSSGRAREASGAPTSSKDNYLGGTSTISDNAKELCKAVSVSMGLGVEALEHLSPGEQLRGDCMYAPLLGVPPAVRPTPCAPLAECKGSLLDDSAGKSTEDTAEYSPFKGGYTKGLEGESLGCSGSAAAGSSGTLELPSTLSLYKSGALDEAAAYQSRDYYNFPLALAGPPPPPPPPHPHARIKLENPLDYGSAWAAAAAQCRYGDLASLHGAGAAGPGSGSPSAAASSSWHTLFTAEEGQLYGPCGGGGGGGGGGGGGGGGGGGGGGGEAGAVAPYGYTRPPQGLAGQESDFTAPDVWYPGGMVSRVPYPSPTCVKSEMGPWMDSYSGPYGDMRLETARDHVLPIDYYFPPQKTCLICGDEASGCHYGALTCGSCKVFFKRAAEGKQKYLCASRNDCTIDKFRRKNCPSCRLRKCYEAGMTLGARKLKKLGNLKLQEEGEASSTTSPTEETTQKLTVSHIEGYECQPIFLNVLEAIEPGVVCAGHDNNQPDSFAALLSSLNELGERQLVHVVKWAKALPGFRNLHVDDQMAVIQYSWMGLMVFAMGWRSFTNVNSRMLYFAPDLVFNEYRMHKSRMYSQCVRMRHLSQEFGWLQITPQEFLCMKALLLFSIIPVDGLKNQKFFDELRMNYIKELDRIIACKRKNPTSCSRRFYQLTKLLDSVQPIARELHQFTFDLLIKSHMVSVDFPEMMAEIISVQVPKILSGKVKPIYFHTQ
Nature of the experiment: Binding affinity to human androgen receptor.

The target in experiment [2] is T2, Glucocorticoid receptor (Homo sapiens, UniProt P04150).
T2 sequence (P04150 whole entry): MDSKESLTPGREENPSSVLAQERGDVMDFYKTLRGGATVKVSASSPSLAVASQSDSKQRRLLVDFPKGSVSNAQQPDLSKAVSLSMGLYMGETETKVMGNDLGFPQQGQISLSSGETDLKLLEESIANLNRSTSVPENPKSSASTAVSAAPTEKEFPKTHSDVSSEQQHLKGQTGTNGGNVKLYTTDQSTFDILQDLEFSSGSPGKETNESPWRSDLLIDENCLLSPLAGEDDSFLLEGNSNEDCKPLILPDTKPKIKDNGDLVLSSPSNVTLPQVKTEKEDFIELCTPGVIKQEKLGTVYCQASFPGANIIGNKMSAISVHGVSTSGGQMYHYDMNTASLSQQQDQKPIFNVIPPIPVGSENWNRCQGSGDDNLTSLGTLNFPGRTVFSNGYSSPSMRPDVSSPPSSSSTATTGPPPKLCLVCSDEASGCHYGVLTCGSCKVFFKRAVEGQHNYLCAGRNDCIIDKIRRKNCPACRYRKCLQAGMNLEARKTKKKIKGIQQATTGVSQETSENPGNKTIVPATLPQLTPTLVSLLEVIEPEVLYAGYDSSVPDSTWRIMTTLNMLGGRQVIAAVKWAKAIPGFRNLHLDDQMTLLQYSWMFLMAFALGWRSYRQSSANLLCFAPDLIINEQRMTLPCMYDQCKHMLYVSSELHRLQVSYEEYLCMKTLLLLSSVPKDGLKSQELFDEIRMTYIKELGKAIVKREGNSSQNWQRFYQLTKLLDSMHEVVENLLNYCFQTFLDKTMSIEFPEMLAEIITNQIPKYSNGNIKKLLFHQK
Nature of the experiment: Binding affinity to human glucocorticoid receptor.

The target of experiment [3] is Estrogen receptor beta (Homo sapiens, UniProt Q92731). Nature of the experiment: Binding affinity to human ERbeta.
Chain of Estrogen receptor beta (Q92731 whole entry): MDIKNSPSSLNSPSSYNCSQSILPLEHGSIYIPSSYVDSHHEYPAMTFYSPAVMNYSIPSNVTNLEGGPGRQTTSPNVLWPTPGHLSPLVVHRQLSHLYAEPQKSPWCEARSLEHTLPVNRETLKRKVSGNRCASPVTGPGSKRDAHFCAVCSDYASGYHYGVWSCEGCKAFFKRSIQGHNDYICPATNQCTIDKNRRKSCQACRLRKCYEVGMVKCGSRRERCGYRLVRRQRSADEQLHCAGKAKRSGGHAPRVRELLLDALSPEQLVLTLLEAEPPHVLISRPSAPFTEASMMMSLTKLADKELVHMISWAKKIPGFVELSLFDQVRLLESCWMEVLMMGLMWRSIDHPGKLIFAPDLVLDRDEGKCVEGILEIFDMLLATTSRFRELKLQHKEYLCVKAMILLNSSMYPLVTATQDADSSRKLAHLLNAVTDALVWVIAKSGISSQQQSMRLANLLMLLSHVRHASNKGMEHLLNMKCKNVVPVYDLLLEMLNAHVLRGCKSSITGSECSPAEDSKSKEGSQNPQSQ
The target in experiment [4] is T3, Estrogen receptor (Homo sapiens, UniProt P03372).
T3 sequence (P03372 whole entry): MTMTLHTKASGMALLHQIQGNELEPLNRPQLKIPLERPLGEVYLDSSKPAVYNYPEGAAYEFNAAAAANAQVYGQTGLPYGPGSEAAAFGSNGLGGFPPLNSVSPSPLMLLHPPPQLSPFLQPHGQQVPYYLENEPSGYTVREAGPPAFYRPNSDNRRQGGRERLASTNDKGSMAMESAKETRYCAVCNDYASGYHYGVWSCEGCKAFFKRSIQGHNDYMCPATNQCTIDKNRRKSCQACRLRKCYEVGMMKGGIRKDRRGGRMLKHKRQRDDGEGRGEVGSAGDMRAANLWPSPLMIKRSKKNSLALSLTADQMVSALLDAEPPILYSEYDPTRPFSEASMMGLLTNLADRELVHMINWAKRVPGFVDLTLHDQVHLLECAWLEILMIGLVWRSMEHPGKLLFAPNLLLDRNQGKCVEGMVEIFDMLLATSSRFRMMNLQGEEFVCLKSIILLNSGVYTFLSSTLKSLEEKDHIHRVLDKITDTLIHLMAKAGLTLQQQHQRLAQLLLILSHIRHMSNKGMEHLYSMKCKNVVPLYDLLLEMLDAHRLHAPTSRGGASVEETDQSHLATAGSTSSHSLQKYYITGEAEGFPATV
Briefly: Binding affinity to human ERalpha.

Experiment [5] concerns the target T2, Glucocorticoid receptor. Briefly: Transrepression activity at GR in human SW1353 cells assessed as inhibition of IL1-stimulated MMP13 production after 24 hrs by whole cell ELISA. The class given is cell-based.
Experiment [6] addresses T4, Progesterone receptor (Homo sapiens, UniProt P06401).
T4 sequence (P06401 whole entry): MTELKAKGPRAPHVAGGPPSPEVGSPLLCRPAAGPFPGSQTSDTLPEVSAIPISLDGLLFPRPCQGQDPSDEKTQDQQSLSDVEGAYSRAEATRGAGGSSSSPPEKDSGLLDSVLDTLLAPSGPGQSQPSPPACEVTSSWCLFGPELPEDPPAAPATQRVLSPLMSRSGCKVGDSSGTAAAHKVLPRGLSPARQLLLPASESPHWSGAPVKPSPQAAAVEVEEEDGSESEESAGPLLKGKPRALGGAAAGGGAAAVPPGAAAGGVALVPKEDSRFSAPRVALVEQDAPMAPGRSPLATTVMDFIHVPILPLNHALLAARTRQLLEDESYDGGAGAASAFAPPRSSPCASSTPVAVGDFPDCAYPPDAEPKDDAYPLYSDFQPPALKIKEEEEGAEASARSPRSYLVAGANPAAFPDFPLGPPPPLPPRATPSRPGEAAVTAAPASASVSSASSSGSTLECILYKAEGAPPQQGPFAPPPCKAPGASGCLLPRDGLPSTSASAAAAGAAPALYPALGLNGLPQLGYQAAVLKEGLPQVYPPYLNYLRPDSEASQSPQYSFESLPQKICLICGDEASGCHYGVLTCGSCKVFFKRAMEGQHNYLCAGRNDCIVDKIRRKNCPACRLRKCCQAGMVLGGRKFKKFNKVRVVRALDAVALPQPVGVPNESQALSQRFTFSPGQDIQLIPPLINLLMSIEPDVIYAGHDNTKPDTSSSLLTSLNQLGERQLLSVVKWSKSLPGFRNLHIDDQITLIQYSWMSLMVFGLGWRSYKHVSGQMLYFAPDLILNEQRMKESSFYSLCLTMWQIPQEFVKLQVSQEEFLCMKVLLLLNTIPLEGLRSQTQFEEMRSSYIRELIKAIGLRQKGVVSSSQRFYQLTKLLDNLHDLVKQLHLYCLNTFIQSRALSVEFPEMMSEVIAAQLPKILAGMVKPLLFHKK
Nature of the experiment: Binding affinity to human progesterone receptor.

Experiment [7] concerns the target T2, Glucocorticoid receptor. Nature of the experiment: Transrepression activity at GR in human SW1353 cells assessed as suppression of NFkappaB-induced IL8 production. It is filed as cell-based.

In the case of `CC#C[C@@]1(O)CC[C@@]2(CC)c3ccc(O)cc3CC[C@@H]2C1`, the IC50 in experiment [1] was determined as 0.42 µM; in experiment [2] it was 0.0056 µM; in experiment [3], 0.58 µM; in experiment [4], 0.089 µM; in experiment [5], 0.014 µM; in experiment [6], 2.6 µM.

In the case of `CC#C[C@@]1(O)CC[C@@]2(CO)c3ccc(O)cc3CC[C@@H]2C1`, in experiment [2], the IC50 was above 1 µM.

As for `CC#C[C@@]1(O)CC[C@@]2(CCO)c3ccc(O)cc3CC[C@@H]2C1`, the IC50 in experiment [2] is above 1 µM.

`CC#C[C@@]1(O)CC[C@@]2(CC)c3ccc(OCc4ccncc4)cc3CC[C@@H]2C1`: the IC50 in experiment [2] turned out to be 0.003 µM; in experiment [3], 3.5 µM; in experiment [4], 0.67 µM; in experiment [5] it was 0.031 µM.

`CC#C[C@@]1(O)CC[C@@]2(CC)c3ccc(OCc4cccnc4C)cc3CC[C@@H]2C1`: the IC50 in experiment [1] was 0.88 µM; in experiment [2], 0.0023 µM; in experiment [3], above 10 µM; in experiment [4], above 10 µM; in experiment [5], 0.0063 µM.

For the compound `CC#C[C@]1(O)C[C@H]2CCc3cc(O)ccc3[C@]2(CC)C[C@@H]1O`, the half-maximal inhibitory concentration (IC50) was above 10 µM in experiment [1]; 0.035 µM in experiment [2]; above 10 µM in experiment [3]; above 10 µM in experiment [4]; 0.063 µM in experiment [5]; above 10 µM in experiment [6].

On to `CC#C[C@]1(O)C[C@H]2CCc3cc(O)ccc3[C@]2(CC)[C@H](O)C1`, for which the IC50 in experiment [1] was above 10 µM; in experiment [2], 0.36 µM; in experiment [3], above 10 µM; in experiment [4], above 10 µM.

For `CC[C@@]12CC[C@](O)(c3ccccc3)C[C@H]1CCc1cc(O)ccc12`, the results for the IC50 in experiment [2] and in experiment [5] were 0.021 µM and above 5 µM, respectively.

In the case of `CC[C@@]12C[C@H](O)[C@H](c3ccccc3)C[C@H]1CCc1cc(O)ccc12`, the half-inhibitory concentration (IC50) in experiment [2] worked out at 0.0013 µM; in experiment [5] it was 1.1 µM.

In the case of `CC#C[C@@]1(O)CC[C@@]2(/C=C/C)c3ccc(O)cc3CC[C@@H]2C1`, the IC50 in experiment [2] was 0.0035 µM; in experiment [5], above 5 µM.

For the compound `CC[C@@]12C[C@H](O)[C@](O)(c3ccccc3)C[C@H]1CCc1cc(OCc3cccnc3C)ccc12`, the IC50 was above 10 µM in experiment [1]; 0.0015 µM in experiment [2]; above 10 µM in experiment [3]; above 10 µM in experiment [4]; 0.038 µM in experiment [5]; above 1 µM in experiment [6].

In the case of `CC[C@@]12C[C@@H](O)[C@](O)(c3ccccc3)C[C@H]1CCc1cc(O)ccc12`, the IC50 came to 0.0038 µM in experiment [2] and 5 µM in experiment [5].

As to `CC[C@@]12CC[C@](O)(c3ccccc3)C[C@H]1CCc1cc(OCc3cccnc3C)ccc12`, the IC50 worked out at 0.006 µM in experiment [2] and 1.5 µM in experiment [5].

Take `CC#C[C@@]1(O)CC[C@@]2(CCC)c3ccc(O)cc3CC[C@@H]2C1`: the values for the IC50 in experiment [2] and in experiment [5] were 0.0015 µM and above 5 µM, respectively.

For the compound `CC[C@@]12C[C@H](O)[C@](O)(c3ccccc3)C[C@H]1CCc1cc(O)ccc12`, the IC50 is above 10 µM in experiment [1]; 0.0025 µM in experiment [2]; 0.66 µM in experiment [3]; 3.4 µM in experiment [4]; 0.14 µM in experiment [5]; 0.75 µM in experiment [6].

Regarding `CC#C[C@@]1(O)CC[C@@]2(C)c3ccc(O)cc3CC[C@@H]2C1`, the IC50 in experiment [2] is 0.017 µM; in experiment [5] it was above 5 µM.

For the compound `CC#C[C@]1(O)C[C@H]2CCc3cc(OCc4cccnc4C)ccc3[C@]2(CC)C[C@@H]1O`, the IC50 was above 10 µM in experiment [1]; 0.0033 µM in experiment [2]; above 10 µM in experiment [3]; above 10 µM in experiment [4]; 0.015 µM in experiment [5]; above 10 µM in experiment [6].

`C=CCC12CC[C@](O)(C#CC)C[C@H]1CCc1cc(O)ccc12` (single isomer, unassigned): the IC50 is above 1 µM in experiment [1]; 0.0062 µM in experiment [2]; 0.25 µM in experiment [3]; 0.034 µM in experiment [7]; 0.093 µM in experiment [4]; 0.014 µM in experiment [5]. This compound also showed an IC50 in experiment [6] of 1.1 µM.
